From patent EP3069725A1, “GLORIOSA SUPERBA L. EXTRACTS, COMPOSITIONS AND USE THEREOF” (priority 2015, dated 2016)

How the values were obtained:
cancer cells [1] = details: literature; cited from earlier work
cancer cells [2] = details: literature comparison with colchicine; cited from earlier work
PANC02 cells = test: In vivo efficacy study, subcutaneous PANC02 tumour model; design: species or system C57BL/6 mice; details: 60 mg/kg BW gemcitabine IP, 3 times/week
Procedure: Cultures of PANC02 cells were harvested using a 0.05% trypsin solution, washed twice in sterile PBS and resuspended in sterile PBS at a concentration of 30 x 10^6 cells per mL. The viable cells were counted by using the Muse® Cell Analyzer. The mice (n = 56) were inoculated with 100 µL of the cell suspension in the right hind limb. Each mouse was randomly assigned to one of 8 groups (n = 6-8 mice per group) receiving a different treatment (Table 2). Tumour growth of the subcutaneous model was evaluated with calliper measurements from the moment the tumours became palpable and this three times a week before treatment and daily during treatment. The tumour volume was calculated by means of formula V = 0.5 x ab^2, with a and b being the long and short axes of the tumour, respectively. Table 2 - Group treatment assignment
Treatment was administered during 10 days, starting 19 days after tumour inoculation when tumours had reached a volume of approximately 300-400 mm^3. The first day of treatment was assigned "day 1". […] For both extracts the total amount of colchicine and its derivatives (calculated as colchicine) was the same, but the amount of colchicine itself in the extracts was different. […] To evaluate the effect of the treatment, tumour volume was measured daily during treatment and the mice were sacrificed on day 11.
Results were expressed as mean values of parameters ± standard error (SE). […]

In the case of `COc1c(O[C@@H]2O[C@H](CO)[C@@H](O)[C@H](O)[C@H]2O)cc2c(c1OC)-c1ccc(OC)c(=O)cc1[C@@H](NC(C)=O)CC2` [Colchicoside], the activity in vitro (cancer cells [1]) is given as “not active”.
For `COc1cc2c(c(OC)c1O)-c1ccc(OC)c(=O)cc1[C@@H](NC(C)=O)CC2` [2-O-demethylcolchicine], the in vivo potency (cancer cells [2]) is given as 13.8 µmol/kg.
For `Nc1ccn([C@@H]2O[C@H](CO)[C@@H](O)C2(F)F)c(=O)n1` [Gemcitabine, gemcitabine], the “% TGI (7 days)” value (PANC02 cells; day 7) was 90% and the “% TGI (10 days)” value (PANC02 cells; day 10) was 99%.
In the case of `COc1cc2c(c(OC)c1OC)-c1ccc(OC)c(=O)cc1[C@@H](NC(C)=O)CC2` [COL, colchicine], the in vivo potency (cancer cells [2]) is given as 0.4 µmol/kg.
